Laboratory results reported in US12594339B2, “Lipid prodrugs of JAK inhibitors and uses thereof” (Seaport Therapeutics, Inc., priority 2019, dated 2026).

Columns and labels:
[1] = biological target: T1, porcine pancreatic lipase (Sus scrofa, UniProt P00591); assay: In vitro hydrolysis by porcine pancreatic lipase in simulated intestinal micellar solution; assay type: in vitro ADME; conditions: for In vitro hydrolysis: acid intermediates: HPLC-MS; for In vitro hydrolysis: conversion to monoglyceride form / In vitro hydrolysis: fate of the monoglyceride: simulated intestinal micellar solution, 37° C., 0-180 min
T1 construct: dispersion of 1 g porcine pancreatin in 5 ml of lipolysis buffer; from tissue; host or cells: porcine pancreatin (pancreas extract), supernatant after centrifugation
T1 sequence (P00591 1-450): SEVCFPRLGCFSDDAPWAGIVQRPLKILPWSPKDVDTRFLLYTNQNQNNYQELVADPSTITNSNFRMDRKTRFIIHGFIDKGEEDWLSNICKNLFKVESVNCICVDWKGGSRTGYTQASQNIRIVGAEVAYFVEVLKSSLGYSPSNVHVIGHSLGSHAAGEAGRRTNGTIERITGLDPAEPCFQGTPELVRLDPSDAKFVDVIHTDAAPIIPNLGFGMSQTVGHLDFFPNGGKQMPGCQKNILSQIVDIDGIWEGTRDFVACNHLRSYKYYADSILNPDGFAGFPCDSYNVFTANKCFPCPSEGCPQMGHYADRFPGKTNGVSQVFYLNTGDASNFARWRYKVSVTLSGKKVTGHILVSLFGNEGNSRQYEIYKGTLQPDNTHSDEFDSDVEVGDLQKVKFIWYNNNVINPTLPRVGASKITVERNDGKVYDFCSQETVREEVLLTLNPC
T1 sequence (P02703 23-112 partner): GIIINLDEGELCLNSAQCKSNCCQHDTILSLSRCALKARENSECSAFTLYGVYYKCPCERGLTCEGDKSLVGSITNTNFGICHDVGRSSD
Description: Hydrolysis of test compounds in vitro was performed via incubation with porcine pancreatic lipase. This provides a more reproducible source of pancreatic enzymes, facilitates enhanced experimental throughput, and is also a greater challenge than collected rat enzymes (as described below, since enzyme activity in rat intestinal fluid is low). Briefly, pancreatic lipase solution was prepared prior to the hydrolysis experiment by dispersion of 1 g porcine pancreatin in 5 ml of lipolysis buffer and 16.9 μL of 0.5 M NaOH. The suspension was mixed well and centrifuged at 3500 rpm for 15 minutes at 5° C. to provide a supernatant. An amount of 1000 mL of lipolysis buffer was prepared with 0.474 g of tris-maleate (2 mM), 0.206 g of CaCl2·H2O (1.4 mM) and 8.775 g of NaCl (150 mM) adjusted with NaOH to pH 6.5. To assess the potential for prodrug hydrolysis in the intestine, 20 μL of prodrug solution (1 mg/mL dissolved in acetonitrile), 900 μL of simulated intestinal micellar solution [prepared with 0.783 g of NaTDC (3 mM) and 0.291 g of phosphatidyl choline (0.75 mM) in 500 mL lipolysis buffer] and 100 μL of enzyme solution were incubated at 37° C. 20 μL samples of the incubation solution were taken at 0, 5, 10, 15, 30, 60, 90, 120 and 180 minutes post incubation and added to 180 μL of MeCN to stop lipolysis. The mixture was vortexed and centrifuged at 5000 rpm for 5 minutes to precipitate proteins prior to analysis. The supernatant was analyzed by HPLC-MS for residual compound concentrations, and the potential products of compound hydrolysis analyzed.
On incubation with digestive enzymes, the monoglyceride forms of the prodrugs are formed very rapidly. The stability in simulated intestinal conditions is therefore better assessed by the stability of the monoglyceride form that is generated by the initial digestion process. The monoglyceride form should remain intact to be absorbed and re-esterified in the enterocyte prior to entry into the lymphatics. A comparison of the stability profiles of the monoglyceride forms of test compounds during in vitro incubation with porcine pancreatic lipase (or freshly collected rat bile and pancreatic fluid (BPF), as described below) was used to evaluate the influence of linker structure on the stability of the monoglyceride intermediates.

[2] = tested on: plasma supplemented with lipoprotein lipase (LPL); assay: In vitro release of therapeutic agent from prodrugs in plasma supplemented with lipoprotein lipase; assay type: in vitro ADME; conditions: rat and/or human plasma supplemented with LPL; for In vitro hydrolysis profile: conversion to monoglyceride form / In vitro hydrolysis profile: further conversion products: 37° C., 0-180 min
Description: In order to probe the release of free drug from TG prodrugs in the systemic circulation, prodrugs are incubated with plasma (rat, mouse, dog, pig or human) supplemented with lipoprotein lipase (LPL, 200 IU/ml). LPL is a key enzyme required for the hydrolysis of lipoprotein associated TG in the systemic circulation and is therefore expected to be a key contributor to lipolysis of the re-esterified drug-TG construct in plasma, largely via liberation of fatty acids in the sn-1 and the sn-3 position of the TG-mimetic, prior to drug release from the 2′ position via esterase hydrolysis. […] is tethered to the luminal surface of vascular endothelial cells under physiological conditions. In the current in vitro studies, plasma is therefore supplemented with LPL to better reflect the in vivo situation.
To start hydrolysis, 10 μl of LPL solution (10,000 IU/ml) was added to a mixture of 10 μl of prodrug solution (1 mg/ml dissolved in acetonitrile) and 500 μl of blank plasma. The mixture was incubated at 37° C. Samples (20 μl) of the incubation solution were taken at 0, 5, 15, 30, 60, 90, 120 and 180 minutes post-incubation and added to 180 μl of MeCN to stop lipolysis. The mixture was vortexed and centrifuged at 4500×g for 5 minutes to precipitate proteins prior to analysis. The supernatant was analyzed by HPLC-MS/MS for the potential products (MG form, acid form, and free drug) of prodrug hydrolysis.
The in vitro hydrolysis profile of selected prodrug compounds was determined in rat and/or human plasma supplemented with LPL. […] The acid intermediate was not observed for prodrug I-5. The acid intermediates are believed to have the structures shown in Table 6, below, based on HPLC-MS data.

[3] = Lymphatic transport assay in mesenteric lymph-duct cannulated rats; assay type: in vivo, rat; conditions: total tofacitinib related compound (lymph hydrolysed before assay), intraduodenal infusion, anaesthetised mesenteric lymph-duct cannulated rats, lymph collected up to 8 h
Description: In order to assess the lymphatic transport of disclosed lipid prodrugs in rats, the mesenteric lymph ducts of the rats used in this study were cannulated to allow continual collection of mesenteric lymph. Lipid formulations containing the compound of interest were then administered to the animals, lymph was collected, and drug concentrations in the lymph samples were quantified.
Lipid-based formulations of the compounds of the invention or control compounds were prepared as previously described (Trevaskis, N. L. et al., Pharmaceutical Research, 2005, 22(11), 1863-1870, WO 2016/023082, and WO 2017/041139, hereby incorporated by reference).
In brief, either 1 or 2 mg of test prodrug, 40 mg oleic acid and 25 mg Tween 80 were mixed in a glass vial and incubated at 37° C. for 12-18 h to equilibrate. An aqueous phase consisting of 5.6 ml phosphate buffered saline (PBS, pH 7.4) was subsequently added to the lipid phase (tofacitinib was dissolved in PBS for the preparation of tofacitinib-containing formulations) and the formulation emulsified by ultrasonication with a Misonix XL 2020 ultrasonic processor (Misonix, Farmingdale, NY, USA) equipped with a 3.2-mm microprobe tip running at 30% of the maximal amplitude of 240 μm and a frequency of 20 kHz for 2 min at room temperature. Doses for administering to more than one animal can be prepared in one batch by suitably increasing the quantities given above. Drug/prodrug concentrations in all formulations were verified using HPLC-MS.
Male Sprague-Dawley (SD) rats were selected for the lymphatic transport studies. Rats (typically 240-320 g) were maintained on a standard diet and fasted overnight with free access to water prior to experiments.
Anesthetized rats were placed on a heated pad at 37° C. and cannulas inserted into the duodenum (for formulation administration and rehydration), mesenteric lymph duct (for lymph collection), and carotid artery (in cases where blood collection was conducted). Post-surgery, rats were re-hydrated for 0.5 h via intraduodenal infusion of normal saline at 2.8 mL/h. The lipid formulations were infused into the duodenum at 2.8 mL/h for 2 h after which, normal saline was infused at 2.8 mL/h for the remainder of the experiment. Lymph was continuously collected for up to 8 h into pre-weighed Eppendorf tubes containing 10 μL of 1,000 IU/mL heparin. The collection tubes were changed hourly and lymph flow was measured gravimetrically. Aliquots of hourly lymph samples were stored at −20° C. prior to assay.
For most compounds, drug concentration in lymph is expressed as total drug and includes free drug and drug associated with different glycerides. Lymph samples were first treated with a lipase or other appropriate conditions to liberate free active agent prior to measurement of active agent levels in the lymph. Treatment with a lipase or other hydrolysis conditions liberates free active agent from any corresponding re-esterified glycerides. Porcine pancreatic lipase is appropriate for this purpose. Alternatively, hydrolysis with 0.5 M NaOH may be used.
For certain compounds, drug concentration was measured for the intact lipid prodrug specifically, without exposing the lymph samples to hydrolysis conditions.
Transport of compounds into lymph during each hourly collection period was calculated from the product of the volume of lymph collected and the measured concentrations in lymph. For fluorescent or fluorescently-labelled compounds, the concentrations of total compound may be measured by fluorescence spectroscopy without hydrolysis.
Table 5 summarizes lymphatic transport of total tofacitinib related compound (% of administered dose) following intraduodenal infusion to anaesthetised, mesenteric lymph-duct cannulated rats. Data are presented as mean±SD when n≥3 or mean± range when n=2. […]

SMILES | In vitro hydrolysis: acid intermediates [1] | In vitro hydrolysis: conversion to monoglyceride form [1] | In vitro hydrolysis: fate of the monoglyceride [1] | In vitro hydrolysis profile: conversion to monoglyceride form [2] | In vitro hydrolysis profile: further conversion products [2] | In vitro hydrolysis profile: acid intermediate ([2]; HPLC-MS) | Cumulative lymphatic transport % dose [3]
CCCCCCCCCCCCCCCC(=O)OCC(COC(=O)CCCCCCCCCCCCCCC)OC(=O)CC(C)CC(=O)OC(C)n1ccc2c(N(C)[C@H]3CN(C(=O)CC#N)CC[C@H]3C)ncnc21 (stereo partly drawn) [I-5, 1-(1,3-bis(palmitoyloxy)propan-2-yl) 5-(1-(4-(((3R,4R)-1-(2-cyanoacetyl)-4-methylpiperidin-3-yl)(methyl)amino)-7H-pyrrolo[2,3-d]pyrimidin-7-yl)ethyl) 3-methylpentanedioate] | not observed | rapidly converted to the prodrug's monoglyceride form | converted to free parent tofacitinib over time | rapidly converted into their monoglyceride form | further conversion to tofacitinib and an acid intermediate | not observed | D (lymphatic transport assay result of less than 0.05% (<0.05%))
CCCCCCCCCCCCCCCC(=O)OCC(COC(=O)CCCCCCCCCCCCCCC)OC(=O)CC(C)CCCCCCCC(C)C(=O)n1ccc2c(N(C)[C@H]3CN(C(=O)CC#N)CC[C@H]3C)ncnc21 (stereo partly drawn) [I-6, 2-((12-(4-(((3R,4R)-1-(2-cyanoacetyl)-4-methylpiperidin-3-yl)(methyl)amino)-7H-pyrrolo[2,3-d]pyrimidin-7-yl)-3,11-dimethyl-12-oxododecanoyl)oxy)propane-1,3-diyl dipalmitate] | not observed | rapidly converted to the prodrug's monoglyceride form | converted to free parent tofacitinib over time | rapidly converted into their monoglyceride form | further conversion to tofacitinib and an acid intermediate |  | B (lymphatic transport assay result between 1% and 10% (1%-10%))
